# In PMC3430621, “HPLC–MS/MS Analysis of a Traditional Chinese Medical Formulation of Bu-Yang-Huan-Wu-Tang and Its Pharmacokinetics after Oral Administration to Rats” (PLoS ONE, 2012):
# Read-outs that look alike come from different tables or passages of the source.
# Key:
# [1] = Pharmacokinetics in conscious freely moving rats after oral administration of BYHWT extract (HPLC-MS/MS of plasma); format: in vivo, Sprague-Dawley rats; settings: for Cl / Cmax / Tmax / half-life: male, Sprague-Dawley
# Source text: The protocol listed below has been reviewed and approved by the Institutional Animal Care and Use Committee (IACUC; approval number 1010409) by the Institutional Animal Experimentation Committee of the National Yang-Ming University. Male pathogen-free Sprague-Dawley rats (250±50 g body weight) were obtained from the Laboratory Animal Center of National Yang Ming University. The animals had free access to food (Laboratory rodent diet 5P14, PMI Feeds, Richmond, IN, USA) and water was allowed at all times. All animal experiments followed the National Yang-Ming University guidelines and procedures for the care of laboratory animals. […] Experimental rats were initially anesthetized with pentobarbital (50 mg/kg, i.p.), and polyethylene tubing was implanted in the right jugular vein for blood sampling. The tube crossed the subcutaneous tissue and was fixed at its exit from the dorsal neck region. The patency tubing was maintained by filling with heparinized saline (20 units/mL). After surgery, the rats were placed in experimental cages and allowed to recuperate for one day. The rats were kept fasted for 12 h and water were available ad libitum before the BYHWT administration. […] In our study, the dose of BYHWT (10 g/kg) was appropriate for oral administration in rats. […] The condensed blood collection in the absorption phase is to figure out the maximum concentration and the time when it reaches the maximum concentration. The time points in the elimination phase are not close. This strategy is commonly used in the pharmacokinetic studies but the total blood consumption should not be over 20% of body blood. In these experimental rats, the total blood sampling volume is within 20% during 12 h. Plasma was separated by centrifuging the blood sample at 6000 rpm for 10 min at 4°C. […] The samples were vortexed and centrifuged at 16,100×g for 10 min. In our micro-analysis, less than 200 μL is needed. Actually, the collected blood volume is around 120-150 μL for each time point. After centrifugation, the plasma samples (50 μL) were vortex-mixed with 100 μL of acetonitrile. The supernatants were collected and filtered. Around 20 μL aliquot of the supernatants was transferred into the vial for analysis by HPLC-MS/MS system. The acetonitrile but not the real sample was used in the needle pre-wash standard procedure [19]. The LC-MS/MS system consisted of an Agilent 1100 series LC with automatic liquid chromatographic sampler, injector, bi-pump and degasser; and Applied Biosystems/MDS Sciex API 3000 tandem quadrupole mass spectrometry equipped with electrospray ionization (ESI) interface using the following parameters: nebulizer gas (NEB):10, curtain gas (CUR): 7, collisionally activated dissociation gas (CAD): 12, ionspray voltage (IS): 5000 V, turbo ionspray temperature (TEM): 450°C. Nitrogen was used in all cases. The mass spectrometer was operated in the positive ion detection mode. […] The following linear gradient program was applied to the analyte with the mobile phase consisting of methanol (0.1% formic acid, solvent A) and NH4OAc (0.1% formic acid, solvent B): 0-1 min: 30-70% A; 1-2 min 70-90%; 2-8 min: 90-90%; 8-9 min: 90-30%, 9-18 min: 30-30%, v/v. […] The flow rate was maintained at […]. Pharmacokinetic parameters including maximum plasma concentration (Cmax), time to reach the maximum concentrations (Tmax), half-life (t1/2), area under concentration-time curve (AUC) and oral clearance (CL) were estimated by a non-compartmental analysis using the pharmacokinetic program, WinNonlin Standard Edition Version 1.1 (Scientific Consulting, Apex, NC, USA). All results were expressed as average mean ± standard deviation (S.D.). ANOVA was used to evaluate differences, and a value of P<0.05 was taken as statistically significant.
# [2] = Stability of the analytes in rat plasma samples (freeze-thaw, short-term, long-term, autosampler); format: in vitro ADME; settings: n = 3; for Stability (%) Autosampler stability: autosampler 8°C 12 h; for Stability (%) Short-term stability: room temperature 6 h; for Stability (%) Freeze-thaw stability: three freeze-thaw cycles; for Stability (%) Long-term stability: −20°C 14 days
# Protocol: Stability was also assessed using the low, medium and high concentrations of analytes. Freeze-thaw stability was assessed over three freeze-thaw cycles. Short-term stability was determined by placing the samples at room temperature for 6 h. Long-term stability was evaluated by analyzing samples kept at −20°C for 14 days. Autosampler stability was determined by maintaining the samples at the autosampler temperature (8°C) for 12 h. All stabilities were calculating as the ratio of average concentration and freshly prepared samples.
# [3] = po, rat plasma, BYHWT extract 10 g/kg p.o., n = 6, read-out: Cmax
# [4] = po, rat plasma, BYHWT extract 10 g/kg p.o., n = 6, read-out: Tmax (converted)
# [5] = po, rat plasma, BYHWT extract 10 g/kg p.o., n = 6, read-out: t1/2
# [6] = rat plasma, BYHWT extract 10 g/kg p.o.
SMILES,Stability (%) Autosampler stability ([2]; concentration 1 (µg/mL)) [%],Stability (%) Short-term stability ([2]; concentration 1 (µg/mL)) [%],Stability (%) Freeze-thaw stability ([2]; concentration 1 (µg/mL)) [%],Stability (%) Long-term stability ([2]; concentration 1 (µg/mL)) [%],Stability (%) Autosampler stability ([2]; concentration 10 (µg/mL)) [%],Stability (%) Short-term stability ([2]; concentration 10 (µg/mL)) [%],Stability (%) Freeze-thaw stability ([2]; concentration 10 (µg/mL)) [%],Stability (%) Long-term stability ([2]; concentration 10 (µg/mL)) [%],Stability (%) Autosampler stability ([2]; concentration 100 (µg/mL)) [%],Stability (%) Short-term stability ([2]; concentration 100 (µg/mL)) [%],Stability (%) Freeze-thaw stability ([2]; concentration 100 (µg/mL)) [%],Stability (%) Long-term stability ([2]; concentration 100 (µg/mL)) [%],"Cmax [1, 3] [ng/mL]","Tmax [1, 4] [min]","half-life [1, 5] [min]","absorption phase in the plasma concentration-time curve [1, 6]",Stability (%) Autosampler stability ([2]; concentration 1000 (µg/mL)) [%],Stability (%) Short-term stability ([2]; concentration 1000 (µg/mL)) [%],Stability (%) Freeze-thaw stability ([2]; concentration 1000 (µg/mL)) [%],Stability (%) Long-term stability ([2]; concentration 1000 (µg/mL)) [%],also measured
"CC(=O)OC1C(O)COC(OC2CCC34CC35CCC3(C)C(C6(C)CCC(C(C)(C)O)O6)C(O)CC3(C)C5CC(OC3OC(CO)C(O)C(O)C3O)C4C2(C)C)C1OC(C)=O (stereo not shown) [Astragaloside I, astragaloside I]",−5.3±7.9,−3.6±8.0,4.6±3.6,−14±17,4.3±6.6,−4.1±10,3.8±2.7,−8.3±2.3,−4.9±7.0,−6.4±6.4,−1.8±5.4,−27±12,–,–,–,–,–,–,–,–,"Cl ([1]; rat, in vivo, po): 90.5 ± 14 mL/min/kg; Cmax ([1]; rat, in vivo, po, 10 g/kg): 55 ± 7.8 ng/mL; Tmax ([1]; rat, in vivo, po, 10 g/kg): 40 min; half-life ([1]; rat, in vivo, po, 10 g/kg): 166 ± 28 min; AUC ([1]; rat, in vivo, po, 10 g/kg): 277 ± 43.3 ng·h/mL"
"CC(=O)O[C@H]1[C@H](O[C@H]2CC[C@]34C[C@]35CC[C@]3(C)[C@@H]([C@@]6(C)CC[C@@H](C(C)(C)O)O6)[C@@H](O)C[C@@]3(C)[C@@H]5C[C@H](O[C@@H]3O[C@H](CO)[C@@H](O)[C@H](O)[C@H]3O)[C@H]4C2(C)C)OC[C@@H](O)[C@@H]1O [Astragaloside II, astragaloside II]",13±10,2.4±12,4.4±3.6,8.7±10,−0.3±11,−1.3±1.9,−2.3±0.8,−0.8±16,−5.4±13,−6.8±5.7,0.4±1.2,1.7±21,–,–,–,–,–,–,–,–,"Cl ([1]; rat, in vivo, po): 129 ± 15 mL/min/kg; Cmax ([1]; rat, in vivo, po, 10 g/kg): 30 ± 4.9 ng/mL; Tmax ([1]; rat, in vivo, po, 10 g/kg): 37 min; half-life ([1]; rat, in vivo, po, 10 g/kg): 212 ± 14 min; AUC ([1]; rat, in vivo, po, 10 g/kg): 190 ± 38.3 ng·h/mL"
"COc1ccc(-c2coc3cc(O)ccc3c2=O)cc1 [Formononetin, formononetin]",–,–,–,–,−13±4.1,−3.4±12,−4.9±3.8,−13±5.5,−4.6±11,1.1±10,5.8±10,−12±7.5,98 ± 17,38,175 ± 13,single and plateau absorption phase,0.8±12,1.5±10.4,−3.5±6.0,1.0±6.4,–
"C[C@@]12C[C@@]3(O)O[C@@H](O1)[C@]1(COC(=O)c4ccccc4)[C@H]3C[C@@]12O[C@@H]1O[C@H](CO)[C@@H](O)[C@H](O)[C@H]1O [Paeoniflorin, paeoniflorin]",–,–,–,–,−3.3±7.3,7.7±10,7.3±4.6,21±15,−1.6±8.2,−1.8±9.4,2.1±1.8,10±7.3,97 ± 33,35,93 ± 32,single and plateau absorption phase,8.5±5.1,11±8.4,9.5±0.2,27±9.9,–
"COc1ccc(-c2coc3cc(O)ccc3c2=O)cc1O [Calycosin, calycosin]",–,–,–,–,−3.5±11,1.4±11,9.6±4.7,2.5±5.7,−2.2±3.5,14±12,8.6±3.8,17±5.2,1230 ± 171,40,75 ± 11,single and plateau absorption phase,7.1±4.9,13±7.3,2.9±4.5,21±12,"AUC ([1]; rat plasma, BYHWT extract 10 g/kg p.o., n = 6): 5130 ± 1220 ng·h/mL"
"COc1ccc(-c2coc3cc(O[C@@H]4O[C@H](CO)[C@@H](O)[C@H](O)[C@H]4O)ccc3c2=O)cc1O [Calycosin-7-O-β-D-glucoside, calycosin-7-O-β-D-glucoside]",−8.4±12,2.5±11,5.8±6.1,6.4±12,2.1±9.1,7.3±12,4.9±3.5,23±13,3.5±7.9,−0.1±0.9,7.0±1.2,20±12,18 ± 4.1,32,338 ± 132,single and plateau absorption phase,–,–,–,–,–
O=c1[nH]cnc2nc[nH]c12 [hypoxanthine],–,–,–,–,–,–,–,–,–,–,–,–,–,–,–,–,–,–,–,–,observed in rat plasma after oral administration of BYHWT ([1]; preliminary experiments): could not be observed
